# According to patent US7741327B2 (Hoffmann-La Roche Inc., priority 2008, dated 2010):
# Target: T1, Recombinant human liver GK1 (GST-GK) (Homo sapiens, UniProt P35557)
# T1 construct: made in house; host or cells: E. coli
# T1 sequence (P35557 1-466 isoform P35557-2): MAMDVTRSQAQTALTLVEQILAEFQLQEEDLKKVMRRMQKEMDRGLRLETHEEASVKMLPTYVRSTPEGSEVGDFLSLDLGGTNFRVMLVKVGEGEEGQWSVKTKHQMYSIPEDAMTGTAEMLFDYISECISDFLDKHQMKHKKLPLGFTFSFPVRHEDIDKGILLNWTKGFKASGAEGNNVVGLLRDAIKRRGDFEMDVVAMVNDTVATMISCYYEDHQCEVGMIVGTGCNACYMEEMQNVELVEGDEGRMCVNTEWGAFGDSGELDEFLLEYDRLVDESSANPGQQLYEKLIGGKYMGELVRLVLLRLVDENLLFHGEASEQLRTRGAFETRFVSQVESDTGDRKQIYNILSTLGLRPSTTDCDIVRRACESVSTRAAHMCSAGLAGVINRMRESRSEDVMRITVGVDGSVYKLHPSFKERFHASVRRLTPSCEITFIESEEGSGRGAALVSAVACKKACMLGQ
# Experiment: In vitro glucokinase activity (G6PDH-coupled NADH assay)
# Assay type: biochemical
# Settings: 30° C., 5 mM D-glucose, 10% DMSO
# Protocol: Glucokinase In Vitro Assay Protocol: Glucokinase (GK) was assayed by coupling the production of glucose-6-phosphate to the generation of NADH with glucose-6-phosphate dehydrogenase (G6PDH, 0.75-1 kunits/mg; Boehringer Mannheim, Indianapolis, Ind.) from Leuconostoc mesenteroides as the coupling enzyme (Scheme 2).
# Recombinant human liver GK1 was expressed in E. coli as a glutathione S-transferase fusion protein (GST-GK) [Liang et al, 1995] and was purified by chromatography over a glutathione-Sepharose 4B affinity column using the procedure provided by the manufacturer (Amersham Pharmacia Biotech, Piscataway, N.J.).
# The assay was conducted at 30° C. in a flat bottom 96-well tissue culture plate from Costar (Cambridge, Mass.) with a final incubation volume of 120 μL. The incubation reaction contained the following: 25 mM Hepes buffer (pH 7.1), 25 mM KCl, 5 mM D-glucose, 1 mM ATP, 1.8 mM NAD, 2 mM MgCl2, 1 μM sorbitol-6-phosphate, 1 mM dithiothreitol, test drug or 10% dimethylsulfoxide, ˜7 units/ml G6PDH, and GK (see below). All organic reagents were >98% pure and were from Boehringer Mannheim with the exceptions of D-glucose and Hepes which were from Sigma Chemical Co, St Louis, Mo. Test compounds were dissolved in dimethylsulfoxide and were added to the incubation reaction minus GST-GK in a volume of 12 μL to yield a final dimethylsulfoxide concentration of 10%. This mix was pre-incubated in the temperature controlled chamber of a SPECTRAmax 250 microplate spectrophotometer (Molecular Devices Corporation, Sunnyvale, Calif.) for 10 min to allow temperature equilibrium and then the reaction was started by the addition of 20 μL GST-GK.
# After addition of enzyme, the increase in optical density (OD) at 340 nm was monitored spectrophotometrically to determine the rate of change (OD340 per min). The GK activity (OD340/min) in control wells (10% DMSO minus GK activators) was compared with the activity in wells containing test GK activators, and the concentration of activator that produced a 50% increase in the activity of GK, i.e., the SC1.5, was calculated. The table below provides the in vitro glucokinase activity for the compounds in the Examples: […]
row,SC1.5 (concentration of activator that produced a 50% increase in the activity of GK),SMILES
1,7.56 µM,"Cc1nc2c(OC3=CC(=O)N([C@@H](CC(C)C)C(=O)Nc4ccn(CC(C)(C)O)n4)C3)cccc2o1 [Example 243, (S)-4-Methyl-2-[4-(2-methyl-benzooxazol-4-yloxy)-2-oxo-2,5-dihydro-pyrrol-1-yl]-pentanoic acid [1-(2-hydroxy-2-methyl-propyl)-1H-pyrazol-3-yl]-amide]"
2,1.8 µM,"O=C(Nc1ccn(C[C@@H](O)CO)n1)C(CCC(F)(F)F)N1CC(Oc2ccccc2Cl)=CC1=O (stereo partly drawn) [Example 220, 2-[4-(2-Chloro-phenoxy)-2-oxo-2,5-dihydro-pyrrol-1-yl]-5,5,5-trifluoro-pentanoic acid [1-((R)-2,3-dihydroxy-propyl)-1H-pyrazol-3-yl]-amide]"
3,0.307 µM,"CC(C)C[C@@H](C(=O)Nc1ccn(C[C@@H](O)C[C@@H](O)CC(=O)OC(C)(C)C)n1)N1CC(Oc2ccccc2Cl)=CC1=O [Example 193, (3R,5S)-6-(3-{(S)-2-[4-(2-chloro-phenoxy)-2-oxo-2,5-dihydro-pyrrol-1-yl]-4-methyl-pentanoylamino}-pyrazol-1-yl)-3,5-dihydroxy-hexanoic acid t-butyl ester]"
4,0.371 µM,"O=C(Nc1ccn(C[C@@H](O)CO)n1)[C@H](Cc1c(F)cccc1F)N1CC(Oc2ccccc2Cl)=CC1=O [Example 185, (S)-2-[4-(2-chloro-phenoxy)-2-oxo-2,5-dihydro-pyrrol-1-yl]-N-[1-((R)-2,3-dihydroxy-propyl)-1H-pyrazol-3-yl]-3-(2,6-difluorophenyl)-propionamide]"
5,0.05 µM,"O=C(Nc1ccn(C[C@@H](O)CO)n1)[C@H](CC1CCC1)N1CC(Oc2ccccc2Cl)=CC1=O [Example 176, (S)-2-[4-(2-chloro-phenoxy)-2-oxo-2,5-dihydro-pyrrol-1-yl]-3-cyclobutyl-N-[1-((R)-2,3-dihydroxy-propyl)-1H-pyrazol-3-yl]-propionamide]"
6,5.931 µM,"CC(C)(O)Cn1ccc(NC(=O)[C@H](CC2CCCCC2)N2CC(Nc3ccc(Cl)c(Cl)c3)=CC2=O)n1 [Example 231, (S)-3-Cyclohexyl-2-[4-(3,4-dichloro-phenylamino)-2-oxo-2,5-dihydro-pyrrol-1-yl]-N-[1-(2-hydroxy-2-methyl-propyl)-1H-pyrazol-3-yl]-propionamide]"
7,0.253 µM,"CC(C)(O)Cn1ccc(NC(=O)[C@H](CC2CCCCC2)N2CC(Oc3ccccc3OCc3ccccc3)=CC2=O)n1 [Example 203, (S)-2-[4-(2-benzyloxy-phenoxy)-2-oxo-2,5-dihydro-pyrrol-1-yl]-3-cyclohexyl-N-[1-(2-hydroxy-2-methyl-propyl)-1H-pyrazol-3-yl]-propionamide]"
8,0.044 µM,"CCOc1ccc(F)c(OC2=CC(=O)N(C(CC3CCOCC3)C(=O)Nc3ccn(CC(C)(C)O)n3)C2)c1F (stereo not drawn) [Example 256, 2-[4-(3-Ethoxy-2,6-difluoro-phenoxy)-2-oxo-2,5-dihydro-pyrrol-1-yl]-N-[1-(2-hydroxy-2-methyl-propyl)-1H-pyrazol-3-yl]-3-(tetrahydro-pyran-4-yl)-propionamide]"

# The remaining lines, values behind:
row,SMILES,SC1.5 (concentration of activator that produced a 50% increase in the activity of GK)
1,"CC(C)OC1=CC(=O)N([C@@H](CC2CCCCC2)C(=O)Nc2ccn(CC(C)(C)O)n2)C1 [Example 25, (S)-3-Cyclohexyl-N-[1-(2-hydroxy-2-methyl-propyl)-1H-pyrazol-3-yl]-2-(4-isopropoxy-2-oxo-2,5-dihydro-pyrrol-1-yl)-propionamide]",1.872 µM
2,"Cc1ccc(F)c(OC2=CC(=O)N([C@@H](CC(C)C)C(=O)Nc3ccn(C[C@@H](O)CO)n3)C2)c1 [Example 103, (S)-2-[4-(2-Fluoro-5-methyl-phenoxy)-2-oxo-2,5-dihydro-pyrrol-1-yl]-4-methyl-pentanoic acid [1-((R)-2,3-dihydroxy-propyl)-1H-pyrazol-3-yl]-amide]",0.072 µM
3,"CC(C)(O)Cn1ccc(NC(=O)[C@H](CC2CCCCO2)N2CC(Oc3c(F)cccc3F)=CC2=O)n1 (stereo partly drawn) [Example 93, (S)-2-[4-(2,6-Difluoro-phenoxy)-2-oxo-2,5-dihydro-pyrrol-1-yl]-N-[1-(2-hydroxy-2-methyl-propyl)-1H-pyrazol-3-yl]-3-(tetrahydro-pyran-2-yl)-propionamide]",0.477 µM
4,"CCOc1ccccc1OC1=CC(=O)N([C@@H](CC(C)C)C(=O)Nc2ccn(CC(C)(C)O)n2)C1.Cl [Example 81, (S)-2-[4-(2-ethoxy-phenoxy)-2-oxo-2,5-dihydro-pyrrol-1-yl]-4-methyl pentanoic acid [1-(2-hydroxy-2-methyl-propyl)-1H-pyrazol-3-yl]-amide hydrochloride]",0.932 µM
5,"CC(C)OC1=CC(=O)N([C@@H](CC2CCCC2)C(=O)Nc2ccn(CC(C)(C)O)n2)C1 [Example 15, (S)-3-Cyclopentyl-N-[1-(2-hydroxy-2-methyl-propyl)-1H-pyrazol-3-yl]-2-(4-isopropoxy-2-oxo-2,5-dihydro-pyrrol-1-yl)-propionamide]",1.832 µM
6,"COC(=O)c1ccc(NC(=O)[C@H](CC2CCCCC2)N2CC(Oc3c(F)ccc(Cl)c3F)=CC2=O)nc1 [Example 73, 6-{(S)-2-[4-(3-Chloro-2,6-difluoro-phenoxy)-2-oxo-2,5-dihydro-pyrrol-1-yl]-3-cyclohexyl-propionylamino}-nicotinic acid methyl ester]",0.036 µM
7,"CC(C)C[C@@H](C(=O)Nc1ccn(C[C@@H](O)CO)n1)N1CC(Oc2cccc3ccccc23)=CC1=O [Example 100, (S)-4-Methyl-2-[4-(naphthalen-1-yloxy)-2-oxo-2,5-dihydro-pyrrol-1-yl]-pentanoic acid [1-((R)-2,3-dihydroxy-propyl)-1H-pyrazol-3-yl]-amide]",0.06 µM
8,"CC(C)C[C@@H](C(=O)Nc1ccn(C[C@@H](O)CO)n1)N1CC(Oc2cccc(Br)c2F)=CC1=O [Example 129, (S)-2-[4-(3-Bromo-2-fluoro-phenoxy)-2-oxo-2,5-dihydro-pyrrol-1-yl]-4-methyl-pentanoic acid [1-((R)-2,3-dihydroxy-propyl)-1H-pyrazol-3-yl]-amide]",0.163 µM
9,"CC(C)C[C@@H](C(=O)Nc1ccn(C)n1)N1CC(Oc2cccc(C(C)(C)O)c2F)=CC1=O [Example 143, (S)-2-{4-[2-Fluoro-3-(1-hydroxy-1-methyl-ethyl)-phenoxy]-2-oxo-2,5-dihydro-pyrrol-1-yl}-4-methyl-pentanoic acid (1-methyl-1H-pyrazol-3-yl)-amide]",2.089 µM
10,"CC(=O)Cc1nsc(NC(=O)[C@H](CC(C)C)N2CC(Oc3ccccc3Cl)=CC2=O)n1 [Example 113, (S)-2-[4-(2-Chloro-phenoxy)-2-oxo-2,5-dihydro-pyrrol-1-yl]-4-methyl-pentanoic acid [3-(2-oxo-propyl)-[1,2,4]thiadiazol-5-yl]-amide]",1.737 µM
